The values that follow come from BindingDB's records for patent US12415785 (Ctxt, 2025).

SMILES strings stand for the structures.

T1 sequence (Q86WV6 whole entry R71H/G230A/H232R/R293Q, looked up): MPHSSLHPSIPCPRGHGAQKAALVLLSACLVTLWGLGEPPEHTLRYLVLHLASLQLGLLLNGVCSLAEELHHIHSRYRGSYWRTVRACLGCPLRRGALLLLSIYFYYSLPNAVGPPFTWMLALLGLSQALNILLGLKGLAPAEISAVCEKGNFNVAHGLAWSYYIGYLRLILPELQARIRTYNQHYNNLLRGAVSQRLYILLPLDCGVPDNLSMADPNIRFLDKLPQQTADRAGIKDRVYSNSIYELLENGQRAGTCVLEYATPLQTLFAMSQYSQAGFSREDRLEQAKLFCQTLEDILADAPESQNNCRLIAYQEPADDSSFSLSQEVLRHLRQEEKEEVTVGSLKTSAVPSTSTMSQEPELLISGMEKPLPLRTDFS

The assay addresses T1, Stimulator of interferon genes protein [1-379,R71H,G230A,H232R,R293Q] (Homo sapiens, UniProt Q86WV6, G230A/H232R/R293Q/R71H).
T1 construct: 1-379
In words: Surface Plasmon Resonance (SPR). As for the experimental part:
Briefly, approximately 20 nmol of recombinant STING protein in 1×TBS buffer (25 mM Tris-HCl, pH 7.5, 150 mM NaCl, 5 mM DTT) was mixed with of EZ-Link™ Sulfo-NHS-LC-LC-Biotin (Thermofisher Scientific, cat #21338) at a molar ratio of 1 to 0.6 and incubated on ice for 2 hours. To remove any unreacted biotin reagent, protein/biotin mixture was passed through a Superdex 75 (10/300 GL) column equilibrated with 10 mM HEPES, pH7.4, 150 mM NaCl, 5 mM DTT, 5%[v/v] glycerol. A protein peak containing biotinylated huSTING protein was collected and stored in aliquots at −80° C.Streptavidin was simultaneously immobilized in all four channels of a CM5 sensor chip docked in a Biacore instrument (either Biacore S200 or Biacore T200, GE Healthcare) as described previously (Zender 2013). Minimally biotinylated STING protein was captured onto a streptavidin coated chip surface at 8° C. in SPR binding buffer (50 mM HEPES, pH 7.4, 150 mM NaCl, 2%[v/v] DMSO) by gradually injecting in a single channel at a constant flow-rate of 2 μL/min until desired capture level was achieved, typically 3000 to 7000 RU (1 RU=1 pg/mm2).All binding experiments were performed at 8° C. in SPR binding buffer. To determine binding affinity, compound interaction with immobilized STING protein was analysed using dose-response experiments. Fresh 10 mM DMSO solutions of compound were diluted directly into SPR binding buffer typically to a concentration of 50 μM and then further diluted 2-fold or 3-fold aiming for either a 5- or 7-point concentration series range. Each ligand concentration series was injected at a constant flow rate of 60 μL/min with a 90 second association and a 180 second dissociation time.
On to `COc1c(C(N)=O)ccc2c1nc(-c1ccc(Cl)cc1C(=O)O)n2CCn1c(-c2ccc(Cl)cc2C(=O)O)nc2c(OC)c(C(N)=O)ccc21` [US12415785, Example 1], for which the Kd (commonly the equilibrium constant for the complex coming apart) is 16.6 µM.

Regarding `NC(=O)c1ccc2c(c1)nc(-c1ccccc1C(=O)O)n2CCn1c(-c2ccccc2C(=O)O)nc2cc(C(N)=O)ccc21` [US12415785, Example 2], the affinity, expressed as Kd, was 67 µM.

The compound `NC(=O)c1ccc2c(c1)nc(-c1ccccc1-c1nn[nH]n1)n2CCn1c(-c2ccccc2-c2nnn[nH]2)nc2cc(C(N)=O)ccc21` [US12415785, Example 5] yielded an equilibrium dissociation constant (Kd) of 19.3 µM. For `COc1c(C(N)=O)ccc2c1nc(-c1ccccc1-c1nn[nH]n1)n2CCn1c(-c2ccccc2-c2nn[nH]n2)nc2c(OC)c(C(N)=O)ccc21` [US12415785, Example 6] the value was 11.9 µM. In turn, `COc1c(C(N)=O)ccc2c1nc(-c1ccc(Cl)cc1-c1nn[nH]n1)n2CCn1c(-c2ccc(Cl)cc2-c2nn[nH]n2)nc2c(OC)c(C(N)=O)ccc21` [US12415785, Example 9] showed a Kd of 2.66 µM. The result for `COc1c(C(N)=O)ccc2c1nc(-c1c(F)cccc1C(=O)O)n2CCn1c(-c2c(F)cccc2C(=O)O)nc2c(OC)c(C(N)=O)ccc21` [US12415785, Example 10] reads 0.183 µM; that for `COc1c(C(N)=O)ccc2c1nc(-c1c(F)cc(Cl)cc1C(=O)O)n2CCn1c(-c2c(F)cc(Cl)cc2C(=O)O)nc2c(OC)c(C(N)=O)ccc21` [US12415785, Example 11], 0.078 µM.

`COc1c(C(N)=O)ccc2c1nc(-c1cc(F)c(F)cc1C(=O)O)n2CCn1c(-c2cc(F)c(F)cc2C(=O)O)nc2c(OC)c(C(N)=O)ccc21` [US12415785, Example 15] came in with a Kd of 6.34 µM. The result for `COc1c(C(N)=O)ccc2c1nc(-c1c(F)cc(F)cc1C(=O)O)n2CCn1c(-c2c(F)cc(F)cc2C(=O)O)nc2c(OC)c(C(N)=O)ccc21` [US12415785, Example 16] reads 0.166 µM. Compound `COc1c(C(N)=O)ccc2c1nc(-c1ccc(Cl)cc1-c1n[nH]c(=O)o1)n2CCn1c(-c2ccc(Cl)cc2-c2n[nH]c(=O)o2)nc2c(OC)c(C(N)=O)ccc21` [US12415785, Example 17] registered a Kd of 0.416 µM. The result for `COc1c(C(N)=O)cc(F)c2c1nc(-c1c(F)cc(F)cc1C(=O)O)n2CCn1c(-c2c(F)cc(F)cc2C(=O)O)nc2c(OC)c(C(N)=O)cc(F)c21` [US12415785, Example 18] reads 0.144 µM. For `COc1c(C(N)=O)ccc2c1nc(-c1c(I)cccc1C(=O)O)n2CCn1c(-c2c(I)cccc2C(=O)O)nc2c(OC)c(C(N)=O)ccc21` [US12415785, Example 19.1] the value was 0.002 µM; for `COc1c(C(N)=O)cc(F)c2c1nc(-c1ccc(Cl)cc1C(=O)O)n2CCn1c(-c2ccc(Cl)cc2C(=O)O)nc2c(OC)c(C(N)=O)cc(F)c21` [US12415785, Example 20], 12.8 µM. Take `COC(=O)c1c(Br)cccc1-c1nc2c(OC)c(C(N)=O)ccc2n1CCn1c(-c2cccc(Br)c2C(=O)OC)nc2c(OC)c(C(N)=O)ccc21` [US12415785, Example 21]: the Kd stood at 1.09 µM. Compared with the last compound, the Kd is about 12-fold lower. `COc1c(C(N)=O)ccc2c1nc(-c1c(Cl)cccc1C(=O)O)n2CCn1c(-c2c(Cl)cccc2C(=O)O)nc2c(OC)c(C(N)=O)ccc21` [US12415785, Example 22] registered a dissociation constant (Kd) of 0.002 µM. Against the preceding compound, the Kd is about 540-fold lower. For `COc1c(C(N)=O)ccc2c1nc(-c1c(Cl)cccc1-c1nn[nH]n1)n2CCn1c(-c2c(Cl)cccc2-c2nn[nH]n2)nc2c(OC)c(C(N)=O)ccc21` [US12415785, Example 23] the value was 0.002 µM; for `COc1c(C(N)=O)ccc2c1nc(-c1ccc(Cl)cc1-c1cn[nH]n1)n2CCn1c(-c2ccc(Cl)cc2-c2cn[nH]n2)nc2c(OC)c(C(N)=O)ccc21` [US12415785, Example 24], 22 µM. `COc1c(C(N)=O)ccc2c1nc(-c1ccc(C)cc1C(=O)O)n2CCn1c(-c2ccc(C)cc2C(=O)O)nc2c(OC)c(C(N)=O)ccc21` [US12415785, Example 25]: the affinity, expressed as Kd, was 19.3 µM. Compound `COc1c(C(N)=O)ccc2c1nc(-c1cc(C)ccc1C(=O)O)n2CCn1c(-c2cc(C)ccc2C(=O)O)nc2c(OC)c(C(N)=O)ccc21` [US12415785, Example 26] gave a Kd of 32.5 µM. The result for `NC(=O)c1ccc2c(c1)nc(-c1c(Br)cccc1C(=O)O)n2CCn1c(-c2c(Br)cccc2C(=O)O)nc2cc(C(N)=O)ccc21` [US12415785, Example 29.1] reads 0.936 µM; that for `COc1c(C(N)=O)ccc2c1nc(-c1cnccc1C(=O)O)n2CCn1c(-c2cnccc2C(=O)O)nc2c(OC)c(C(N)=O)ccc21` [US12415785, Example 30], 90 µM; that for `COc1c(C(N)=O)ccc2c1nc(-c1ncc(Cl)cc1C(=O)O)n2CCn1c(-c2ncc(Cl)cc2C(=O)O)nc2c(OC)c(C(N)=O)ccc21` [US12415785, Example 31], 55 µM. Turning to `CCc1ccc(-c2nc3c(OC)c(C(N)=O)ccc3n2CCn2c(-c3ccc(CC)cc3C(=O)O)nc3c(OC)c(C(N)=O)ccc32)c(C(=O)O)c1` [US12415785, Example 33], the Kd was 78 µM. In turn, `COc1c(C(N)=O)ccc2c1nc(-c1ccc(Cl)cc1C(=O)O)n2C/C=C/Cn1c(-c2ccc(Cl)cc2C(=O)O)nc2c(OC)c(C(N)=O)ccc21` [US12415785, Example 34] yielded a Kd of 26 µM. For `COc1c(C(N)=O)ccc2c1nc(-c1ccc(Cl)cc1C(=O)O)n2CCCn1c(-c2ccc(Cl)cc2C(=O)O)nc2c(OC)c(C(N)=O)ccc21` [US12415785, Example 35] the value was 35 µM; for `NC(=O)c1ccc2c(c1)nc(-c1ccc(Cl)cc1C(=O)O)n2CCn1c(-c2ccc(Cl)cc2C(=O)O)nc2cc(C(N)=O)ccc21` [US12415785, Example 39], 300 µM; for `COc1c(C(N)=O)ccc2c1nc(-c1cccc(Cl)c1-c1nn[nH]n1)n2CCn1c(-c2cccc(Cl)c2-c2nn[nH]n2)nc2c(OC)c(C(N)=O)ccc21` [US12415785, Example 40], 64 µM. `COc1ccc(-c2nc3c(OC)c(C(N)=O)ccc3n2CCn2c(-c3ccc(OC)cc3C(=O)O)nc3c(OC)c(C(N)=O)ccc32)c(C(=O)O)c1` [US12415785, Example 41] had a Kd of 83 µM.

In turn, `COc1c(C(N)=O)ccc2c1nc(-c1cc(Cl)ccc1-c1nn[nH]n1)n2CCn1c(-c2cc(Cl)ccc2-c2nn[nH]n2)nc2c(OC)c(C(N)=O)ccc21` [US12415785, Example 42] had a Kd of 14.8 µM. Against the preceding compound, the Kd is about 5.6-fold lower. The result for `COc1c(C(N)=O)ccc2c1nc(-c1c(F)cc(F)cc1-c1nn[nH]n1)n2CCn1c(-c2c(F)cc(F)cc2-c2nn[nH]n2)nc2c(OC)c(C(N)=O)ccc21` [US12415785, Example 43] reads 0.096 µM. The result for `COc1c(C(N)=O)ccc2c1nc(-c1c(F)cc(F)cc1-c1n[nH]c(=O)o1)n2CCn1c(-c2c(F)cc(F)cc2-c2n[nH]c(=O)o2)nc2c(OC)c(C(N)=O)ccc21` [US12415785, Example 44] reads 0.423 µM; that for `COc1c(C(N)=O)ccc2c1nc(-c1c(F)cc(Cl)cc1-c1nn[nH]n1)n2CCn1c(-c2c(F)cc(Cl)cc2-c2nn[nH]n2)nc2c(OC)c(C(N)=O)ccc21` [US12415785, Example 46], 0.025 µM. The result for `COc1c(C(N)=O)ccc2c1nc(-c1c(F)cccc1-c1nn[nH]n1)n2CCn1c(-c2c(F)cccc2-c2nn[nH]n2)nc2c(OC)c(C(N)=O)ccc21` [US12415785, Example 48] reads 0.03 µM; that for `COc1c(C(N)=O)ccc2c1nc(-c1c(F)cccc1-c1n[nH]c(=O)o1)n2CCn1c(-c2c(F)cccc2-c2n[nH]c(=O)o2)nc2c(OC)c(C(N)=O)ccc21` [US12415785, Example 49], 0.031 µM. With `COc1c(C(N)=O)ccc2c1nc(-c1c(F)cc(Cl)cc1-c1n[nH]c(=O)o1)n2CCn1c(-c2c(F)cc(Cl)cc2-c2n[nH]c(=O)o2)nc2c(OC)c(C(N)=O)ccc21` [US12415785, Example 50], the Kd was determined as 0.014 µM.
